Laboratory results from patent US12138256B2, “Treatment of cardiopulmonary disorders” (Bayer Aktiengesellschaft, priority 2021, dated 2024).
Like-named read-outs stand apart in the source and are kept apart here.

How the values were obtained:
[1] = Thermal stability of the solid (90° C., 7 days, HPLC peak areas); type: physicochemical
Description: 0.3 mg of the test compound, e.g. comparative example 11 were solved in 0.1 ml dimethylsulfoxide and 0.4 ml acetonitrile. Then 1.0 ml water was added. For complete dissolution the HPLC vial was shaken and sonicated. This solution was immediately analyzed by HPLC (reference at t0). 0.3 mg of the test compound was weighed into another HPLC vial. The vial was capped and stored for 7 days in a heating block at 90° C.
After this time the vial was decapped and 0.1 ml dimethylsulfoxide and 0.4 ml acetonitrile were added to the stressed compound. Then 1.0 ml water was added. For complete dissolution the HPLC vial was shaken and sonicated. The sample was analyzed by HPLC (sample after 1 week). The peak areas in percentage are used for quantification.

[2] = system: allergen-induced late airway hyperresponsiveness and inflammation in sensitized mice; test: Chronic asthma model: ovalbumin sensitized BALB/c mice, airway hyperresponsiveness and BAL (C-3.3); type: in vivo, mouse; conditions: for inhibition at 0.1 mg/kg: Mus musculus, dexamethasone 18 h and 1 h before each Ova challenge, comparative example 11 high dose of 100 μg/kg 2 h before
Description: The study was conducted to investigate whether inhalative treatment with comparative example 11 has a protective effect on the experimentally allergen-induced late airway hyperresponsiveness and inflammation in sensitized mice. Female BALB/c mice were sensitized and boosted with Ovalbumin (Ova) and aluminium hydroxide adjuvant (day 0. 14 and 21) with the exception of the negative control group receiving NaCl. On day 28 and 29. the animals were challenged with Ova aerosol. On day 30, a hyperresponsiveness test followed by bronchoalveolar lavage (BAL) was performed in all animals of all groups. The treatment groups D (10 μg) and E (100 μg) were treated with comparative example 11 inhalationally 2 h before each Ova challenge. Group A and B, the positive and negative control groups, were treated correspondingly with the vehicle. The Ova-sensitized positive control group A should show the full allergic reaction and, in contrast, the sham-sensitized negative control group B should show no allergic response. As a reference group, the animals of group C were treated inhalative with the corticosteroid dexamethasone but—due to its different mechanism of action—18 h and 1 h before each Ova challenge (on day 27, 28 and 29). On day 30, 24 h after Ova challenge in the late allergic phase, lung function—especially RL—was measured in the orotracheally intubated mice and a test on airway hyperresponsiveness was performed (inhalational methacholine provocation in doubling dose steps). […] These inhibitory effects show the successful therapeutic intervention.

Compound	thermal stability [1]	also measured
O=C(O)c1ccc(CCN(CCc2ccccc2OCc2ccc(-c3nc4cc(OC(F)(F)F)ccc4o3)cc2)C2CCCc3nc(C(=O)O)ccc32)cc1 (single isomer, unassigned) [comparative example 9, 5-([2-(4-carboxyphenyl)ethyl]{2-[2-({4-[5-(trifluoromethoxy)-1,3-benzoxazol-2-yl]benzyl}oxy)-phenyl]ethyl}amino)-5,6,7,8-tetrahydroquinoline-2-carboxylic acid]	limited thermal stability	
C[C@@H]1C[C@H]2[C@@H]3CCC4=CC(=O)C=C[C@]4(C)[C@@]3(F)[C@@H](O)C[C@]2(C)[C@@]1(O)C(=O)CO [dexamethasone, reference compound]		inhibition at 0.1 mg/kg ([2]; read-out: inhibition of the airway hyperresponsiveness (ED100)): 89%; inhibition at 0.1 mg/kg ([2]; read-out: inhibition of the airway hyperresponsiveness (ED150)): 70%; inhibition of the eosinophilic influx ([2]; dexamethasone inhalative): 100%
O=C(O)c1ccc(CCN(CCc2ccccc2OCc2ccc(-c3nc4cc(C(F)(F)F)ccc4o3)cc2)C2CCCc3nc(C(=O)O)ccc32)cc1 (single isomer, unassigned) [comparative example 6, 5-([2-(4-carboxyphenyl)ethyl]{2-[2-({4-[5-(trifluoromethyl)-1,3-benzoxazol-2-yl]benzyl}oxy)phenyl]-ethyl}amino)-5,6,7,8-tetrahydroquinoline-2-carboxylic acid]	limited thermal stability	

Second part, led by results:

thermal stability [1]	Compound	also measured
limited thermal stability	N#Cc1ccc2oc(-c3ccc(COc4ccccc4CCN(CCCCC(=O)O)C4CCCc5nc(C(=O)O)ccc54)cc3)nc2c1 (single isomer, unassigned) [comparative example 10, 5-{(4-carboxybutyl)[2-(2-{[4-(5-cyano-1,3-benzoxazol-2-yl)benzyl]oxy}phenyl)ethyl]amino}-5,6,7,8-tetrahydroquinoline-2-carboxylic acid]	
limited thermal stability	O=C(O)CCCCN(CCc1ccccc1OCc1ccc(-c2nc3cc(C(F)(F)F)ccc3o2)cc1)C1CCCc2nc(C(=O)O)ccc21 (single isomer, unassigned) [comparative example 7, 5-[(4-carboxybutyl)(2-[2-({4-[5-(trifluoromethyl)-1,3-benzoxazol-2-yl]benzyl}oxy)phenyl]ethyl)amino]-5,6,7,8-tetrahydroquinoline-2-carboxylic acid]	
limited thermal stability	O=C(O)CCCCN(CCc1ccccc1OCc1ccc(-c2nc3cc(OC(F)(F)F)ccc3o2)cc1)C1CCCc2nc(C(=O)O)ccc21 (single isomer, unassigned) [comparative example 8, 5-[(4-carboxybutyl){2-[2-({4-[5-(trifluoromethoxy)-1,3-benzoxazol-2-yl]benzyl}oxy)phenyl]ethyl}-amino]-5,6,7,8-tetrahydroquinoline-2-carboxylic acid]	
